Data as given in paper PMC11359197 (Viruses, 2024).

Molecular target: released M^pro-GST (Severe acute respiratory syndrome coronavirus 2, UniProt P0DTD1, Q3569E)
Type: cell-based, SARS-CoV-2

| SMILES | GFP signal (GFP degradation by the released M^pro-GST) | GFP signal versus DMSO controls, pilot screen |
| --- | --- | --- |
| CC(C)(C)NC(=O)N[C@H](C(=O)N1C[C@H]2[C@@H]([C@H]1C(=O)NC(CC1CCC1)C(=O)C(N)=O)C2(C)C)C(C)(C)C (some centres unmarked) [boceprevir, Boceprevir] | consistently suppressed the GFP degradation | higher GFP signals |
| Cc1cccc(C)c1OCC(=O)N[C@@H](Cc1ccccc1)[C@@H](O)C[C@H](Cc1ccccc1)NC(=O)[C@H](C(C)C)N1CCCNC1=O [lopinavir] | background levels |  |
| COC(=O)N[C@H](C(=O)N[C@@H](Cc1ccccc1)[C@@H](O)CN(Cc1ccc(-c2ccccn2)cc1)NC(=O)[C@@H](NC(=O)OC)C(C)(C)C)C(C)(C)C [atazanavir] | background levels |  |
| CC(NC(=O)[C@H](Cc1ccccc1)NC(=O)OCc1ccccc1)C(=O)CF (some centres unmarked) [Z-FA-FMK] | consistently suppressed the GFP degradation | higher GFP signals |
| CC(C)[C@H](O)C(=O)N[C@@H](C)C(=O)N[C@@H]1C(=O)N(C)CCc2ccccc21 [LY450139] |  | higher GFP signals |
| CC(C)C[C@H](NC(=O)[C@H]1O[C@@H]1C(=O)O)C(=O)NCCCCN=C(N)N [E-64] | background levels |  |
